Patent US20230145406A1, “DIVALENT METAL-CONTAINING BIOMATERIALS AND METHODS OF USE” (University of Oregon, priority 2021, published 2023)

Assay: Precipitation in filtered concentrated cupric dilactate solution
Type: physicochemical
Conditions: cupric dilactate in water, sonicated, overnight 37° C., 0.45 μm filtered; over 3 weeks
Method: Increased concentrations of cupric dilactate were prepared for use in polymers to achieve higher loading. Excess of cupric dilactate in water (5 g in 10 ml) was prepared and sonicated for 30-120 minutes (15 minutes each x 2-8 times with 10 minutes break between each sonication session) and left overnight at 37° C. The solution obtained was cooled to room temperature and the green liquid containing cupric dilactate was separated from the undissolved cupric dilactate by aspiration and filtering through 0.45 μm syringe filter. […] This solution can be used for loading plugs, for example as described in Examples 1-3.

For `CC(O)C(=O)[O-].CC(O)C(=O)[O-].[Cu+2]` (stereo not shown) [cupric dilactate], the “precipitate in the filtrate” value was “No precipitate was observed”.
